Data reported in patent US20160235807A1, “AGONISTS OF GUANYLATE CYCLASE USEFUL FOR DOWNREGULATION OF PRO-INFLAMMATORY CYTOKINES” (SYNERGY PHARMACEUTICALS, INC., priority 2013, published 2016).
Entries after “also recorded” stand apart in the source; their conditions may differ. Bridge positions count the residues as written; N and C are the ends. Peptide text beside a SMILES is read from it.

Legend:
GC-C Receptor = molecular target: T1, GC-C Receptor (Homo sapiens, UniProt P25092); assay: Cyclic GMP stimulation assay in T84 cells; assay type: cell-based
T1 construct: endogenous in cells; host or cells: T84 human colon carcinoma cells
T1 sequence (P25092 24-1073): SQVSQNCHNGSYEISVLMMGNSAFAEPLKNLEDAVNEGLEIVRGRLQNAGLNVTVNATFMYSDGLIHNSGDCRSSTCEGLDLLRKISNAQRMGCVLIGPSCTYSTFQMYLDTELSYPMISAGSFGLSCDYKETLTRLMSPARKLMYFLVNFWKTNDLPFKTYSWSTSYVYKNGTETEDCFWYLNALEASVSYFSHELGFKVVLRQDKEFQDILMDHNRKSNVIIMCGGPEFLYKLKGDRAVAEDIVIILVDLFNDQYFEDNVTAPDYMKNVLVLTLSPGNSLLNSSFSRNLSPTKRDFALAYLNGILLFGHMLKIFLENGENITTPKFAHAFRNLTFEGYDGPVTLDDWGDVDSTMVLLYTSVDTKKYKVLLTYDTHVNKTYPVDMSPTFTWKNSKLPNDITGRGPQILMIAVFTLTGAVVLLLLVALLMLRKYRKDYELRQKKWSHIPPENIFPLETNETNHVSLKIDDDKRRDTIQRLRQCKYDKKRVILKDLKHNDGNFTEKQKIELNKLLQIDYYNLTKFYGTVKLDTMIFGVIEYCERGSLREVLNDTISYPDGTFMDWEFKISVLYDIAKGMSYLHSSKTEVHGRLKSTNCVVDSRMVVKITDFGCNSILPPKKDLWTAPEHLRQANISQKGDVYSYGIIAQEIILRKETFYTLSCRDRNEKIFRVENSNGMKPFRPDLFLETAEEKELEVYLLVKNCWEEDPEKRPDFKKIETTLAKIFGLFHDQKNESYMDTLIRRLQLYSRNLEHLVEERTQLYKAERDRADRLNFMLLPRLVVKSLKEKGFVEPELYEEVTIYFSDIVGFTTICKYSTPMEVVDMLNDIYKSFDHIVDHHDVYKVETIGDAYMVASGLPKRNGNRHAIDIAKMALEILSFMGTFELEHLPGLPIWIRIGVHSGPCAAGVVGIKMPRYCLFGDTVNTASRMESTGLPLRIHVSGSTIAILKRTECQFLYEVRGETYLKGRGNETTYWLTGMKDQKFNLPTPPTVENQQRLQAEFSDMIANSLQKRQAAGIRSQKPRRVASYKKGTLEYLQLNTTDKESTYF
Experimental: (§1) The potency of test peptides to stimulate cGMP synthesis in T84 cells was assayed by a published procedure (Shailubhai et al. 2000). Briefly, confluent monolayers of T-84 cells in 24-well plates were washed twice with 250 μl of DMEM containing 50 mM HEPES (pH 7.4), pre-incubated at 37° C. for 10 min with 250 μl of DMEM containing 50 mM HEPES (pH 7.4) and 1 mM isobutylmethylxanthine (IBMX), followed by incubation with test peptide for 30 min. The medium was aspirated, and the reaction was terminated by the addition of 3% perchloric acid. Following centrifugation, and neutralization with 0.1 N NaOH, the resulting supernatant was used directly for measurements of intracellular cGMP using an ELISA kit (Caymen Chemical, Ann Arbor, Mich.). Results are expressed as pmol of cGMP/mg of protein in the cell extracts.

DSS-induced colitis = DSS-induced colitis in BDF-1 mice; assay type: in vivo, mouse
Experimental: To evaluate the efficacy of plecanatide in DSS induced colitis model, 48 BDF-1 mice were divided into 8 treatment groups (6 mice/group). One group was not exposed to DSS (untreated control) and groups 2-8 were treated with 5% DSS in the drinking water on day 0. Plecanatide or SP-333 solutions formulated in 0.1M phosphate buffer (pH 7) was administered by oral gavage, once a day at 0.005, 0.05, 0.5, 2.5 and 5 mg/kg, from study day −1 (i.e. prior to initiation of DSS treatment) through day 6 for SP-333 or day 7 for plecanatide. DSS treatment was initiated on day 0 for groups 2-8 until the end of the study. Sulfasalazine (80 mg/kg) or 5-ASA (100 mg/kg) was used as positive control and was administered daily. Mice were sacrificed on day 7. The large intestine was removed and weighed. Distal section of the large intestine was collected and fixed as described above.
(§2) Disease activity index (DAI) was calculated by scoring in-life parameters starting from day −1 until the end of the study. Once daily, all mice were weighed and assessed for stool consistency, and the presence of overt blood in the stool or around the anus essentially similar to that reported earlier. Colitis severity was assessed by histopathological analyses of H&E stained tissue sections (Hegazi et al., 2005; Dave et al., 2009) employing the following criteria: (score 0) normal appearing crypts; (score 1) abnormal crypt pathology without ulceration; (score 2) depleted crypts with ulceration; (score 3) 20-50% depleted crypts and increased ulceration; (score 4) >50% depleted crypts with substantial ulceration and (score 5) totally ulcerated/inflamed colon with no crypts remaining. All slides were scored in a blinded manner. Colitis severity in TCRα−/− model was scored as previously described^25. All slides were scored in a blinded manner. Disease activity index (DAI) was calculated by assessing body weight, stool consistency, and the presence of overt blood in stools or around the anus, essentially similar to that reported earlier (Hamamoto et al., 1999).

TNBS-induced colitis [1] = assay: TNBS-induced colitis in BDF-1 mice; assay type: in vivo, mouse
Experimental: Mouse strains BDF1 and BALB/c were used to examine the efficacy of plecanatide in TNBS induced colitis. The procedures used were as previously described (Hegazi et al., 2005; Dave et al., 2009). Briefly, to induce colitis in specific pathogen-free 2-4 months old female BALB/c mice, 0.5 mg of TNBS in 50% ethanol was slowly administered into the lumen of the colon via a 3.5 F catheter fitted onto a 1-ml syringe (total injection volume 100 μl). Plecanatide formulated in PBS was administered by oral gavage for a total of 7 days, with the first dose given one day prior to TNBS challenge. Mice were observed daily for body weight, food consumption and for signs of any apparent toxicity, rectal bleeding or prolapse. After 7 days of treatment, GI tissue collection, fixation and histopathological scoring were performed essentially as described previously (Sheikh et al., 2011). GI tissues were also collected and immediately processed for explant culture and cytokine expression as described below.
To induce colitis in BDF1 mice, a total of 90, 10-12 week old, H. pylori free male mice were used. Animals were randomized into 9 groups. TNBS was rectally administered as described above in a total injection volume of 100 μl. Oral administration of PBS formulated plecanatide (0.0005-50 mg/kg), animal monitoring and collection of GI tissues was performed as described above. Daily administration of plecanatide was continued through day 6, when the mice were euthanized. […] Distal sections were fixed, stained with H&E, and evaluated for histopathology and visual severity scores (Hegazi et al., 2005; Dave et al., 2009). […]
as §2

TNBS-induced colitis [2] = assay: TNBS-induced colitis in BALB/c mice; assay type: in vivo, mouse; conditions: plecanatide 0.5 and 2.5 mg/kg oral once daily 7 days; p<0.05; preliminary study
Experimental: Mouse strains BDF1 and BALB/c were used to examine the efficacy of plecanatide in TNBS induced colitis. The procedures used were as previously described (Hegazi et al., 2005; Dave et al., 2009). Briefly, to induce colitis in specific pathogen-free 2-4 months old female BALB/c mice, 0.5 mg of TNBS in 50% ethanol was slowly administered into the lumen of the colon via a 3.5 F catheter fitted onto a 1-ml syringe (total injection volume 100 μl). Plecanatide formulated in PBS was administered by oral gavage for a total of 7 days, with the first dose given one day prior to TNBS challenge. […]
as §2, with “All slides were scored in a blinded manner. Colitis severity in TCRα−/− model was scored as previously described^25. All slides were scored in a blinded manner. Disease activity index (DAI) was calculated by assessing body weight, stool consistency, and the presence of overt blood in stools or around the anus, essentially similar to that reported earlier (Hamamoto et al., 1999).” left out

colonic explants [3] = assay: Explant cultures of colon tissue from TNBS-induced colitis BALB/c mice, cytokine ELISA; assay type: in vivo, mouse; conditions: 24 h, vs vehicle-treated explants
Experimental: (§3) Colonic tissue fragments (0.5 g dry weight) from the TNBS-induced colitis mice and TCRα^−/− knockout mice were processed as previously described (Hegazi et al., 2005). Tissue fragment supernatants were collected after 24 h for cytokine ELISAs. Murine immunoassay kits (R&D System) were used according to the manufacturer's instructions for IL-12p40, IL-23 and TNF. Linco Cytokine-16 plex Mouse ELISA was performed for MIP-1α, RANTES, IL-10 and IL-17 (Millipore) as per manufacturer's instructions.
(§4) Murine IL-12 p40, IL-1β, TNF, IFN-γ, immunoassay kits (R&D System, MN, USA) were used according to the manufacturer's instructions. Linco Cytokine-16 plex Mouse ELISA was performed for MIP-1α, RANTES, IL-10, TNF and IL-17 (Millipore, Billerica, Mass.) as per manufacturer's instructions.

colitis in TCRα −/− mice = assay: Spontaneous colitis in TCRα−/− mice; assay type: in vivo, mouse; conditions: plecanatide 0.5 and 2.5 mg/kg oral daily for 14 days; vs vehicle
Experimental: TCRα^−/− mice were matched for age and sex in all experiments. 16 week old TCRα−/− mice were treated with plecanatide at 0.5 or 2.5 mg/kg/day or PBS vehicle control by oral gavage for 14 days (6 mice per group). Mice were sacrificed 12 h after the final dose, and GI tissues were collected for experimental analyses. Colitis severity in TCRα^−/− model was scored as described (Berg et al., 1996).
as §2, with “Disease activity index (DAI) was calculated by assessing body weight, stool consistency, and the presence of overt blood in stools or around the anus, essentially similar to that reported earlier (Hamamoto et al., 1999).” left out

colonic explants [4] = assay: Explant cultures of colon tissue from TCRα−/− mice, cytokine and chemokine ELISA; assay type: in vivo, mouse; conditions: explant culture 24 h, plecanatide treated mice
Experimental: as §3, §4

[5] = assay type: in vitro ADME
Experimental: (§5) Plecanatide and SP-333 were incubated in simulated intestinal fluid (SIF) for 6-24 h. Inactivated SIF was used as a control. Following the treatment, samples were analyzed by HPLC by cGMP production in T84 cells. […] The active metabolite, SP-338 was characterized by MS and MS/MS and identified to be formed via removal of carboxyl terminal leucine possibly due to cleavage by carboxypeptidases.

[6] = assay type: in vitro ADME; remark: listed apart in the source
Experimental: as §1, §5

colon dysplasia = conditions: oral plecanatide; Chang et al., 2014; Shailubhai et al., 2012; cited from earlier work

Q: For `CC(C)C[C@H](NC(=O)[C@@H]1CSSC[C@@H]2NC(=O)[C@H](CC(C)C)NC(=O)[C@H](CCC(=O)O)NC(=O)[C@@H](NC(=O)[C@H](CCC(=O)O)NC(=O)[C@H](CC(=O)O)NC(=O)[C@@H](N)CC(N)=O)CSSC[C@H](NC(=O)[C@H](C)NC(=O)[C@H](C(C)C)NC(=O)[C@H](CC(N)=O)NC(=O)[C@H](C(C)C)NC2=O)C(=O)N[C@@H]([C@@H](C)O)C(=O)NCC(=O)N1)C(=O)O` [plecanatide, Asn^1-Asp^2-Glu^3-Cys^4-Glu^5-Leu^6-Cys^7-Val^8-Asn^9-Val^10-Ala^11-Cys^12-Thr^13-Gly^14-Cys^15-Leu^16] (H-NDECELCVNVACTGCL-OH; disulfide 4-12, 7-15 (inferred)), which “potency to stimulate cGMP in T84 cells” value (GC-C Receptor) is on record?
A: The value was “dose dependent increase in cGMP; also recorded: comparable to that of SP-333”.

Q: What about the “DSS induced colitis severity score” value (DSS-induced colitis; plecanatide 0.005 mg/kg oral gavage once a day, vs untreated controls p=0.02) of the same compound?
A: The value was “significantly lower; also recorded: as effective as sulfasalazine (80 mg/kg)”.

Q: And the “amelioration of DSS-induced colitis at higher doses” value (DSS-induced colitis; plecanatide doses higher than 0.005 mg/day (so in the source))?
A: Its value is “did not produce incremental effect”.

Q: What about the “colitis severity compared with reference compound sulfasalazine (80 mg/kg)” value (DSS-induced colitis; plecanatide, DSS model) of the same compound?
A: Its value is “superior to treatment with reference compound”.

Q: What about the colitis severity (TNBS-induced colitis [1]; plecanatide 0.05 mg/kg and higher doses oral, vs untreated controls) of the same compound?
A: The colitis severity was “significantly lower; also recorded: statistically significant reduction”.

Q: And the colitis severity (TNBS-induced colitis [1]; plecanatide doses under 0.005 mg/kg oral)?
A: Its colitis severity is “ineffective”.

Q: What about the effective dose-range (TNBS-induced colitis [1]; plecanatide oral, TNBS model) of the same compound?
A: Its effective dose-range is 0.05 to 0.5 mg/kg.

Q: And the “colitis severity compared with reference compound sulfasalazine (80 mg/kg)” value (TNBS-induced colitis [1]; plecanatide, TNBS model)?
A: Its value is “superior to treatment with reference compound”.

Q: What about the colitis scores (TNBS-induced colitis [2]) of the same compound?
A: The colitis scores was “significantly lower; also recorded: effectively ameliorated”.

Q: What about the “suppression of secretion of IL-12p40” value (colonic explants [3]) of the same compound?
A: Its value is 37%.

Q: What about the “suppression of secretion of IL-23” value (colonic explants [3]) of the same compound?
A: The value was 84%.

Q: What about the “suppression of secretion of TNF” value (colonic explants [3]) of the same compound?
A: The value was 67%.

Q: What about the colitis scores (colitis in TCRα −/− mice) of the same compound?
A: Its colitis scores is “reduced”.

Q: What about the “levels of secreted IL-10” value (colonic explants [4]) of the same compound?
A: The value was “increased”.

Q: What about the “production of IL-17” value (colonic explants [4]) of the same compound?
A: Its value is “considerably suppressed”.

Q: What about the “production of MIP-1α” value (colonic explants [4]) of the same compound?
A: The value was “considerably suppressed”.

Q: And the “production of RANTES” value (colonic explants [4])?
A: The value was “considerably suppressed”.

Q: And the “HPLC analysis after digestion with SIF” value [5]?
A: Its value is “completely converts plecanatide into a shorter peptide”.

Q: And the “time over which intact peptide was stable, HPLC” value [5]?
A: The value was “up to 6 h”.

Q: What about the activity retained [6] of the same compound?
A: The activity retained was roughly 70%.

Q: What about the biological activity lost [6] of the same compound?
A: The biological activity lost was roughly 35%.

Q: And the colon dysplasia (colon dysplasia)?
A: Its colon dysplasia is “considerably reduced”.
